Reference: US6960678B2, “Silanol enzyme inhibitors” (The Research Foundation of State University of New York, priority 1996, dated 2005)
Read-outs that look alike come from different tables or passages of the source.

Key:
[1] = biological target: T1, recombinant HIV-1 protease (Human immunodeficiency virus type 1 group M subtype B, UniProt P04585); assay: HIV-1 protease inhibition, cleavage of substrate polypeptide, HPLC-based detection; assay type: biochemical
T1 construct: recombinant HIV-1 protease
Source text: The standard test procedure for HIV-1 protease inhibition uses recombinant HIV-1 protease in an assay which monitors cleavage of a substrate polypeptide using an HPLC-based detection system. Proc. Nat. Acad. Sci. 86, 9752 (1989).

HIV-protease enzyme = biological target: T2, HIV-protease enzyme (Human immunodeficiency virus type 1 group M subtype B, UniProt P04585); assay: HIV-protease enzyme inhibition (Ki); assay type: biochemical, HIV-1
T2 construct: tested against HIV-protease enzyme (Ki)

[2] = storage stability as solid or in solution (polymerization / oligomerization); assay type: physicochemical
Source text: The compounds are stable and can be stored for weeks or longer at room temperature without noticeable decomposition in either solid or solution form. In addition, there is no intrinsic toxicity associated with silicon (Friedberg, K. D. and Schiller, E., Handbook on Toxicity of Inorganic Compounds, Eds. Seiler H, G., and Sigel, H.; Marcel Dekker, New York, 1988, pp. 595-617).
The C2 symmetry of the HIV protease has led to the development of C2 symmetric inhibitors such as Merck's L-700, 417. The silanediol analog 9a was prepared from the commercially available dichlorodiphenylsilane. Treatment of this dichlorosilane with the enantiomerically pure lithium reagent 53b led to the symmetric diether 54 in 75% yield. Cleavage of the ethers and oxidation to the diacid was followed by preparation of the diamide 56. For this study, N-benzyl amides were used as the simplest first analog. Hydrolysis of diphenylsilane 56 to the silanediol 9a was effected by treatment with triflic acid in dichloromethane at 0° C. for ten to 30 minutes. Under these conditions, both phenyl groups on silicon are lost very rapidly. We believe that the intermediate formed is not a di-triflate, but is the spirocyclic intermediate 57. Addition of the triflic acid-derived intermediate to an aqueous phase (either acidic, buffered, or basic) serves to finish hydrolysis to the diol 9a. […]

[3] = system: angiotensin-converting enzyme; conditions: Galardy and Kortylewicz 1985; cited from earlier work
HIV-1 virus = assay: antiviral cell culture assay (IC90); assay type: cell-based
[4] = HIV-protease enzyme, read-out: Ki

## O=C(NCc1ccccc1)[C@H](Cc1ccccc1)C[Si](O)(O)C[C@@H](Cc1ccccc1)C(=O)NCc1ccccc1 [Compound 9a, Di-benzyl 2-(S)-6-(S)-dibenzyl-4,4-dihydroxy-4-sila-heptanediamide]
[1]
  IC50: 5600 nM
HIV-protease enzyme
  Ki: 3160 nM
[2]; as a solid or in deuterochloroform solution, for weeks
  storage stability of the pure diol: without polymerization
[2]; taken up in DMSO, one week
  stability in DMSO: fully stable

## O=C(NCc1ccccc1)C(Cc1ccccc1)C[Si](O)(CC(Cc1ccccc1)C(=O)NCc1ccccc1)O[Si](O)(CC(Cc1ccccc1)C(=O)NCc1ccccc1)CC(Cc1ccccc1)C(=O)NCc1ccccc1 [Compound 60, 1,3-dihydroxy-1,1,3-3-tetra(3-[2-(S)-2-phenylmethylpropionyl])-disiloxane tetra(N-phenylmethylamide)]
HIV-protease enzyme; [4]
  Ki: 4670 nM

## O=C(NCc1ccccc1)C(Cc1ccccc1)C[Si]1(CC(Cc2ccccc2)C(=O)NCc2ccccc2)O[Si](CC(Cc2ccccc2)C(=O)NCc2ccccc2)(CC(Cc2ccccc2)C(=O)NCc2ccccc2)O[Si](CC(Cc2ccccc2)C(=O)NCc2ccccc2)(CC(Cc2ccccc2)C(=O)NCc2ccccc2)O[Si](CC(Cc2ccccc2)C(=O)NCc2ccccc2)(CC(Cc2ccccc2)C(=O)NCc2ccccc2)O1 [Compound 61, 1,1,3,3,5,5,7,7-octa(3-[2-(S)-2-phenylmethylpropionyl)]-cyclotetrasiloxane octa(N-phenylmethylamide)]
HIV-protease enzyme; [4]
  Ki: 2300 nM

## C[Si](C)(O)O [dimethylsilanediol]
[3]
  inhibitor of angiotensin-converting enzyme: inactive

## CC(C)(C)NC(=O)[C@@H]1CN(Cc2cccnc2)CCN1C[C@@H](O)C[C@@H](Cc1ccccc1)C(=O)N[C@H]1c2ccccc2C[C@H]1O [indinavir, reference compound]
HIV-1 virus; Human immunodeficiency virus 1
  IC90: 33 nM

## Di-[1-(S)-(2,(R)-hydroxyindanyl)]2-(S)-6-(S)-dibenzyl-4,4-dihydroxy-4-sila-heptanediamide [Compound 9b]
HIV-protease enzyme; [4]
  Ki: 2.7 nM
HIV-1 virus
  IC90: 170 nM
